In US5310745A, “Antiviral compounds” (priority 1992, dated 1994):

Legend:
Assay type in all cases: cell-based
visna virus = assay: Plaque reduction assay, inhibition of visna virus in vitro; parameters: key to Antiviral Activity: A: active compound; I: inactive compound; conditions: for inhibition at 1 µM / inhibition at 10 µM / inhibition at 100 µM / inhibition at 1000 µM: Visna-maedi virus; for inhibition at 1 µM: 0.001 mM; for inhibition at 1 µM / inhibition at 10 µM / inhibition at 100 µM / inhibition at 1000 µM / % Plaque Reduction: Table 2; for inhibition at 10 µM: 0.01 mM; for Antiviral Activity: Table 1
Description: Visna virus, a lentivirus genetically very similar to the AIDS virus, is pathogenic for sheep and goats. See Sonigo et al., Cell 42, 369-382 (1985); Haase, Nature 322, 130-136 (1986). Inhibition of visna virus replication in vitro as a useful model for human immunodeficiency virus (HIV) and its inhibition by test compounds has been described by Franket al., Antimicrobial Agents and Chemotherapy 31 (9), 1369-1374 (1987). The N-butyl derivative of 1,5-dideoxy-1,5-imino-D-glucitol, also referred to as n-butyl-deoxynojirimycin (N-Bu-DNJ), was used as a control standard for comparison with various novel compounds of this invention.
Various compounds as prepared above were tested for inhibition of visna virus in vitro in a plaque reduction assay as follows:
(§1) Sheep choroid plexus (SCP) cells were obtained from American Type Culture Collection (ATCC) catalogue number CRL 1700 and were routinely passaged in vitro in Dulbecco's Modified Eagles (DME) medium supplemented with 20% fetal bovine serum (FBS). SCP cells were passaged once per week at a 1:2 or 1:3 split ratio. Visna was titrated by plaque assay in six-well plates. Virus pools were stored at -70° C.
(§2) SCP cells were cultured in 6-well plates to confluence. Wells were washed two times with serum free Minimal Essential Medium (MEM) to remove FBS. 0.2 ml of virus was added per well in MEM supplemented with 4 mM glutamine and gentamycin. After 1 hour adsorption, the virus was aspirated from each well. The appropriate concentration of each compound in 5 ml of Medium 199 (M-199) supplemented With 2% lamb serum, 4 mM glutamine, 0.5% agarose and gentamycin was added to each well. Cultures were incubated at 37° C. in a humidified 5% CO2 incubator for 3-4 weeks. To terminate the test: cultures were fixed in 10% formalin, the agar removed, the monolayers stained with 1% crystal violet and plaques counted. Each compound concentration was run in triplicate. […] 0 is no toxicity observed while 4 is total lysing of the cell monolayer.

[1] = test system: Sheep choroid plexus (SCP) cells; assay: Toxicity of compounds in control wells without virus, graded morphologically
Experimental: as §1, §2

[2] = test system: Sheep choroid plexus (SCP) cells; assay: as above; parameters: key: 0: no toxicity observed; 4: total lysing of the cell monolayer; conditions: graded 0 to 4, Table 2
Experimental: as §1, §2

[3] = 0.01 mM, graded 0 to 4, Table 2
[4] = 0.03125 mM, 0 to 4 scale, Table 1

Row | Structure (SMILES) | inhibition at 1 µM (visna virus) [%] | inhibition at 10 µM (visna virus) [%] | Toxicity ([1]; 0.1 mM, graded 0 to 4, Table 2) | Toxicity ([2]; 0.001 mM) | Toxicity ([2]; 1.0 mM) | inhibition at 100 µM (visna virus; 0.1 mM) [%] | inhibition at 1000 µM (visna virus; 1.0 mM) [%] | Toxicity ([2]; 0.01 mM) | Toxicity ([2]; 0.1 mM) | % Plaque Reduction (visna virus; 1.0 mM) | further results
1 | CC(=O)OC[C@@H]1[C@@H](OC(C)=O)[C@H](OC(C)=O)[C@@H](OC(C)=O)CN1C(=O)Cc1ccc(Cl)cc1 [Example 40, 1,5-[(4-Chlorophenyl)acetylimino]-1,5-dideoxy-D-glucitol, tetraacetate] | 29 | 46 | 3 | 0 | 4 |  |  |  |  |  | Toxicity [1, 3]: 1
2 | CC(=O)OC[C@@H]1[C@@H](OC(C)=O)[C@H](OC(C)=O)[C@@H](OC(C)=O)CN1C(=O)c1cccnc1 [Example 35, 1,5-[(3-Nicotinoyl)imino]-1,5-dideoxy-D-glucitol, tetraacetate] |  | 10 | 1 |  |  | 90 | 94 | 0 |  |  | Toxicity ([1]; 1.0 mM, graded 0 to 4, Table 2): 3
3 | CCCCN1C[C@H](OC(=O)C(C)(C)C)[C@@H](O)[C@H](OC(=O)C(C)(C)C)[C@H]1COC(=O)C(C)(C)C [Example 50B] | 17 | 33 | 1 | 0 |  | 75 | 76 | 0 |  |  | Toxicity ([1]; 1.0 mM, graded 0 to 4, Table 2): 2
4 | CC(=O)OC[C@@H]1[C@@H](OC(C)=O)[C@H](OC(C)=O)[C@@H](OC(C)=O)CN1CCCC(F)(F)F [Example 63, 1,5-(4,4,4-Trifluorobutylimino)-1,5-dideoxy-D-glucitol, tetraacetate] |  |  |  |  |  | 2 | 90 |  | 0 |  | Toxicity ([1]; 1.0 mM, graded 0 to 4, Table 2): 2
5 | CC(=O)OC[C@@H]1[C@@H](OC(C)=O)[C@H](OC(C)=O)[C@@H](OC(C)=O)CN1C(=O)COc1ccccc1 [Example 25, 1,5-[(Phenoxymethyl)carbonylimino]-1,5-dideoxy-D-glucitol, tetraacetate] |  |  |  |  |  |  |  |  |  |  | Antiviral Activity (visna virus; 0.1 mM): A; Antiviral Activity (visna virus; 1.0 mM): A; Toxicity ([1]; 0.1 mM, 0 to 4 scale, Table 1): 1; Toxicity ([1]; 1.0 mM, 0 to 4 scale, Table 1): 2
6 | CCCCN1C[C@H](OC(=O)C(C)(C)C)[C@@H](OC(=O)C(C)(C)C)[C@H](OC(=O)C(C)(C)C)[C@H]1COC(=O)C(C)(C)C [Example 50A] |  | 20 | 1 |  | 4 | 49 |  | 0 |  | Toxic | 
7 | CC(=O)OC[C@@H]1[C@@H](OC(C)=O)[C@H](OC(C)=O)[C@@H](OC(C)=O)CN1C [Example 10, 1,5-(Methylimino)-1,5-dideoxy-D-glucitol, tetraacetate] |  |  |  |  |  |  |  |  |  |  | Antiviral Activity (visna virus; 0.03125 mM): A; Antiviral Activity (visna virus; 0.0625 mM): A; Antiviral Activity (visna virus; 0.125 mM): A; Toxicity [1, 4]: 1; Toxicity ([1]; 0.0625 mM, 0 to 4 scale, Table 1): 2; Toxicity ([1]; 0.125 mM, 0 to 4 scale, Table 1): 3
8 | CCCCN1C[C@H](OC(=O)CCC(C)C)[C@@H](OC(=O)CCC(C)C)[C@H](OC(=O)CCC(C)C)[C@H]1COC(=O)CCC(C)C [Example 49, 1,5-(Butylimino)-1,5-dideoxy-D-glucitol, tetra(4-methylpentanoate)] |  |  |  |  | 0 |  | 98 |  |  |  | 
9 | CCCCCCCCCCc1ccc(C(=O)N2C[C@H](OC(C)=O)[C@@H](OC(C)=O)[C@H](OC(C)=O)[C@H]2COC(C)=O)cc1 [Example 47, 1,5-[(4-Decylbenzoyl)imino]-1,5-dideoxy-D-glucitol, tetraacetate] | 9 | 64 | 1 | 0 | 4 | 86 |  | 0 |  | Toxic | 
10 | CCCCN1C[C@H](OC(=O)CCC2CCCC2)[C@@H](OC(=O)CCC2CCCC2)[C@H](OC(=O)CCC2CCCC2)[C@H]1COC(=O)CCC1CCCC1 [Example 56, 1,5-(Butylimino)-1,5-dideoxy-D-glucitol, tetra(3-cyclopentylpropanoate)] |  | 13 |  |  | 0 | 16 | 56 | 0 | 0 |  | 
11 | CCCC(=O)OC[C@@H]1[C@@H](OC(=O)CCC)[C@H](OC(=O)CCC)[C@@H](OC(=O)CCC)CN1C(=O)Cc1cccs1 [Example 55, 1,5-Dideoxy-1,5-[[1-oxo-2-(2-thienyl)ethyl]imino]-D-glucitol, tetrabutanoate] | 11 | 37 |  | 0 | 4 | 95 |  | 0 | 0 | Toxic | 
12 | CCCC(=O)OC[C@H]1NC[C@H](OC(=O)CCC)[C@@H](OC(=O)CCC)[C@@H]1OC(=O)CCC [Example 42, 1,5-Dideoxy-1,5-imino-D-glucitol, tetrabutyrate] | 31 | 13 | 2 | 0 | 4 | 97 |  |  |  |  | Toxicity [1, 3]: 1
13 | CCCCN1C[C@H](OC(C)=O)[C@@H](OC(C)=O)[C@H](O)[C@H]1CO [Example 28, 1,5-(Butylimino)-1,5-dideoxy-D-glucitol, 2,3-diacetate] |  |  | 2 |  | 4 | 44 | 87 |  |  |  | 
14 | CC(=O)OC[C@@H]1[C@@H](OC(C)=O)[C@H](OC(C)=O)[C@@H](OC(C)=O)CN1C(=O)C=Cc1ccccc1 [Example 36, 1,5-(Cinnamoylimino)-1,5-dideoxy-D-glucitol, tetraacetate] | 42 | 76 |  | 0 | 4 |  |  | 0 | 4 | Toxic | % Plaque Reduction (visna virus; 0.1 mM): Toxic
15 | CCC(CC)CN1C[C@H](OC(C)=O)[C@@H](OC(C)=O)[C@H](OC(C)=O)[C@H]1COC(C)=O [Example 27, 1,5-[(2-Ethylbutyl)imino]-1,5-dideoxy-D-glucitol, tetraacetate] |  |  |  |  |  | 12 | 65 |  | 0 |  | Toxicity ([1]; 1.0 mM, graded 0 to 4, Table 2): 3
16 | CC(=O)OC[C@@H]1[C@@H](OC(C)=O)[C@H](OC(C)=O)[C@@H](OC(C)=O)CN1C(=O)CCOc1ccc(Cl)cc1 [Example 51, 1,5-Dideoxy-1,5-[[3-(4-chlorophenoxy)-1-oxopropyl]-imino]-D-glucitol, tetraacetate] | 12 | 57 | 1 | 0 | 4 | 91 |  | 0 |  | Toxic | 
17 | CCCC(=O)OC[C@@H]1[C@@H](OC(=O)CCC)[C@H](OC(=O)CCC)[C@@H](OC(=O)CCC)CN1CCCCCCCC(F)(F)F [Example 62, 1,5-(8,8,8-Trifluorooctylimino)-1,5-dideoxy-D-glucitol, tetrabutyrate] |  | 49 | 1 |  |  | 91 | 97 |  |  |  | Toxicity [1, 3]: 1; Toxicity ([1]; 1.0 mM, graded 0 to 4, Table 2): 2
18 | CCCCCCN1C[C@H](OC(C)=O)[C@@H](OC(C)=O)[C@H](OC(C)=O)[C@H]1COC(C)=O [Example 12, 1,5-(Hexylimino)-1,5-dideoxy-D-glucitol, tetraacetate] |  |  |  |  |  |  |  |  |  |  | Antiviral Activity (visna virus; 0.0075 mM): A; Antiviral Activity (visna virus; 0.0156 mM): A; Antiviral Activity (visna virus; 0.03125 mM): A; Toxicity ([1]; 0.0075 mM, 0 to 4 scale, Table 1): 1; Toxicity ([1]; 0.0156 mM, 0 to 4 scale, Table 1): 1; Toxicity [1, 4]: 2
19 | CCCC(=O)OC[C@@H]1[C@@H](OC(=O)CCC)[C@H](OC(=O)CCC)[C@@H](OC(=O)CCC)CN1C(=O)c1ccccc1OC(C)=O [Example 52, 1,5-[[2-(Acetyloxy)benzoyl]imino]-1,5-dideoxy-D-glucitol, tetrabutanoate] | 16 | 37 |  | 0 | 4 | 98 |  | 0 | 0 | Toxic | 
